Measurements reported in patent publication US20250108029A1, “INHIBITORS OF THE INTERACTION BETWEEN THE ROCK AND PDK1 PROTEIN KINASES” (Université Paris Cite, priority 2021, published 2025).
Read-outs that look alike come from different tables or passages of the source.

Key:
[1] = tested on: peripheral blood mononuclear cells (PBMCs); assay: Interferon secretion by PBMCs stimulated with influenza virus (THP1-Dual reporter); type: cell-based, human; conditions: 20 μM, 1 h before stimulation by the influenza virus, 24 h
[2] = tested on: IRF transcription factor; assay: IRF activation in THP1-Dual cells after cGAMP (luciferase assay); type: cell-based, human; conditions: according to a dose effect; stimulation of the STING interferon pathway by cGAMP, 24 h
Description: The THP1-Dual reporter cell line was cultured at 5×10^5/ml. […] The THP1-Dual cells were stimulated for 24 h with the STING pathway agonist, cGAMP. Luciferase assay (luminometry)
The THP1-Dual cells express the Lucia luciferase reporter gene under a promoter containing five IFN response elements. The THP1-Dual cells allow the IRF pathway to be studied by measuring Lucia luciferase activity. Lucia luciferase activity is determined by means of the QUANTI-Luc Gold assay (InvivoGen). The THP1-Dual cells are cultured in a 96-well plate (200 μL/well). After LPS or R848 treatment, for each well, 10 μL of culture medium are added to 50 μL of QUANTI-Luc GOLD solution and the light signal produced is measured by means of a luminometer.

[3] = tested on: IRFs; assay: Interferon pathway (IRF) activity in reporter cells fed supernatants of R848-stimulated PBMCs; type: cell-based, human; conditions: for IC50: Homo sapiens, PBMC, read-out: IC50 IFR; for secretion of interferons on PBMCs: preventively, 1 h before stimulation by TLR7/8
Text: (§1) The supernatants were collected for cytokine detection.

[4] = tested on: pyruvate kinase (PK); assay: Pyruvate kinase activity assay; type: biochemical
Description: Inhibitors (2 μL) are added to 193 μL of a mixture containing PEP, ADP, MgSO4, β-NADH and L-lactic dehydrogenase. After reading at 340 nm, 7 μL of pyruvate kinase are added to the mixture. The samples are read at 340 nm every 1 to 2 min for 20 min.

[5] = tested on: peripheral blood mononuclear cells (PBMCs); assay: Interferon secretion by PBMCs stimulated with HIV (THP1-Dual reporter); type: cell-based, human; conditions: 20 μM, 1 h before stimulation by the HIV virus, 24 h
Text: as §1

[6] = tested on: THP1 human monocytic cell line; assay: RT-qPCR of pro-inflammatory gene transcription in THP1-Dual monocytes; type: cell-based; conditions: dose effect; for concentration from which transcription of the genes coding for TNFα and IL-1β is reduced: induced by LPS, 1 hour; for concentration from which transcription of the genes coding for TNFα, IL-6, MCP1 and IL-1β is reduced: induced by R848 5 μg/ml, 16 h
Description: The THP1-Dual cell lines were cultured at 1×10^6 cells/ml.
The THP1-Dual cells (InvivoGen) were stimulated for 16 h with the TLR7/8 agonist (R848) at 5 μg/ml or for 1 hour with the TLR4 agonist (LPS) at 100 ng·ml, respectively. The cells were washed in PBS and lysed to prepare the mRNAs for an RT-qPCR analysis.
The total RNAs are extracted from the cells with the E.Z.N.A. kit. Total RNA Kit 1 (Omega Bio-tek) according to the supplier's instructions. The RNA concentration is measured by means of a spectrophotometer (Nanodrop ND-1000). The total RNA is reverse-transcribed into cDNA by means of the PrimeScript RT Master Mix kit (Takara RR036A). The cDNA synthesis is carried out according to the following protocol: 300-500 ng of RNA in 8 μL of water free of RNase, supplemented with 2 μL of the reaction buffer (containing the PrimeScript reverse transcriptase, RNase inhibitors, oligo(dT) primers, random 6mers and the mix of dNTPs). The enzymatic reverse transcription reaction is carried out at 37° C. for 15 min. The enzyme is inactivated by incubating the sample at 85° C. for 15 sec.
The quantitative real-time PCR is carried out according to the following conditions: cDNA diluted to 1/10th is added to the following mixture: 3.8 μL of H2O, […] of sense and antisense primers (10 μM) (Table 3), 5 μL of Absolute qPCR SYBR Green Mix containing Thermo-Start DNA Polymerase, MgCl2, SYBR Green and dNTPs (Eurogentec). The assays are carried out in triplicate in a 384-well plate (Thermo Scientific). DNA amplification by quantitative PCR is carried out in the CFX384 system (Bio-Rad) with the following program: 3 min at 95° C./5 sec at 95° C. and 30 sec at 60° C. repeated 40 cycles/2 min at 72° C. and 30 sec at 95° C. followed by a dissociation step which makes it possible to verify the specificity of the amplification product. The DNA amplification data are analyzed with Bio-Rad CFX Manager software.

[7] = tested on: plasmacytoid dendritic cells (pDCs); type: cell-based, human
[8] = tested on: NF-κB transcription factor; assay: NF-κB activation in THP1-Dual cells (SEAP assay); type: cell-based, human; conditions: according to a dose effect
Description: The THP1-Dual reporter cell line was cultured at 5×10^5/ml.
The THP1-Dual cells express the secreted embryonic alkaline phosphatase (SEAP) reporter gene under a promoter containing five copies of the NF-κB consensus transcriptional response element. The THP1-Dual cells allow the NF-κB pathway to be studied by monitoring the SEAP activity. The SEAP alkaline phosphatase activity is determined by means of the QUANTI-Blue colorimetric enzyme assay (InvivoGen). The THP1-Dual cells are cultured in a 96-well plate (200 μL/well). After LPS or R848 treatment, for each well, 20 μL of culture medium are added to 180 μL of the QUANTI-Blue solution and incubated at 37° C. for 2 h. Absorbance (measurement at 655 nm with a spectrophotometer (Bio-Rad Model 680 microplate reader) is proportional to SEAP activity.

[9] = tested on: NF-κB transcription factor; assay: NF-κB activity in THP1-Dual reporter cells fed supernatants of R848-stimulated PBMCs; conditions: for IC50: Homo sapiens, THP1-Dual, read-out: IC50 NF-κB; for secretion of inflammatory cytokines on PBMCs: preventively, 1 h before stimulation by TLR7/8
Description: The in vitro experiments were carried out using human peripheral blood mononuclear cells (PBMCs) isolated by density with centrifugation using a medium for separating white blood cells from peripheral blood ([sequence] Technologies). […] The peripheral blood mononuclear cells (PBMCs) were cultured in RPMI 1640 (Sigma) containing 10% inactivated fetal calf serum and 1 mM glutamine (Hyclone, Logan, UT).
The PBMCs were cultured at 2×10^6 cells/ml. The cells were then incubated with the compounds of the invention at the indicated concentrations for 1 h before stimulation. The PBMCs were then stimulated for 24 h with the TLR7/8 agonist Resiquimod (R848) at 5 μg/ml. The supernatants were collected for cytokine detection.
The activity of the NF-κB transcription Factor and the induction of the interferon (IFN) pathway via interferon regulatory factors (IRFs) were measured using the THP1-Dual reporter cell line from InvivoGen. The PBMC culture supernatants were added to the THP1-Dual cultures at a rate of 0.4×10^6 cells/ml for 24 h. The activity of the NF-κB transcription factor was measured with QUANTI-Blue, a SEAP detection agent following the supplier's recommendations. The activity of the IRFs was measured with QUANTI-Luc, a luciferase detection reagent following the supplier's recommendations.

[10] = tested on: peripheral blood mononuclear cells (PBMCs); assay: LegendPlex assay of cytokines in supernatants of stimulated PBMCs; conditions: for secretion of TNFα, IL-1β, IL-6, IL-18, IL-23, IFNγ and MCP1 on PBMCs: stimulation by TLR4 (LPS 100 ng/ml, 24 h); for secretion of TNFα, IL-1β, IL-6, IL-10, IL-12 p70, IL-18, IL-23, IL-33, IFNα2, IFNγ and MCP1 on PBMCs: stimulation by TLR7/8 (R848 5 μg/ml, 24 h)
Description: The in vitro experiments were carried out using human peripheral blood mononuclear cells (PBMCs) isolated by density with centrifugation using a medium for separating white blood cells from peripheral blood ([sequence] Technologies). The blood from the healthy donors was obtained at the “Etablissement Frangais du Sang” (French Blood Establishment) (convention #07/CABANEL/106; Paris, France). […] The peripheral blood mononuclear cells (PBMCs) were cultured in RPMI 1640 (Sigma) containing 10% inactivated fetal calf serum and 1 mM glutamine (Hyclone, Logan, UT).
The PBMCs were cultured at 2×10^6 cells/ml. The cells were then incubated with the compounds of formula (V) and (VI) at the indicated concentrations for 1 hour before stimulation. The PBMCs were then stimulated for 24 h with the TLR7/8 agonist Resiquimod—R848 at 5 μg/ml and the TLR4 agonist Lipopolysaccharide—LPS at 100 ng/ml. The supernatants were collected for cytokine detection.
An assay of the cytokines in the supernatants of the cell cultures was carried out using the “LegendPlex Antivirus Human Panel” or “LegendPlex Human Inflammation Panel” (Biolegend, San Diego, USA) according to the manufacturer's instructions.

[11] = tested on: monocytes; assay: Intracellular TNFα production in isolated monocytes by flow cytometry; type: cell-based, human
[12] = tested on: B lymphocytes; assay: B lymphocyte activation (CD69) by flow cytometry after TLR9 stimulation; type: cell-based, human; conditions: 20 μM, 1 h before TLR9 agonist CpG-A, 16 h
Description: The B lymphocytes were purified by negative selection with the “B Cell Isolation Kit” (Miltenyi).
The B lymphocytes were cultured at 1×10^6/ml. […] They were stimulated for 16 h (flow cytometry) with the TLR9 agonist CpG-A at […]. The cells were recovered for flow cytometry.
After washing, the cells were resuspended in PBS containing 2% of FCS and 2 mM of EDTA and then labeled with an anti-CD69 antibody (clone REA824) from Miltenyi Biotec, used at 1/100° for 30 min at 4° C. The cells were washed twice and then passed into flow cytometry. The data acquisition was carried out on the Canto II flow cytometer using Diva software (BD Biosciences, San Jose, CA). FlowJo software was used to analyze the data.

[13] = tested on: monocytes; assay: TNFα production in monocytes treated with siPDK1 or siCTL and stimulated with R848; type: cell-based, human; conditions: 20 μM, 1 h before R848 1 μg/ml
[14] = PBMCs incubated with compound 1 h before R848 5 μg/ml for 24 h, supernatants on reporter cells, QUANTI-Luc
[15] = Condition B: 20 μM, 1 h before stimulation by the influenza virus
[16] = stimulation of TLR4 by LPS, 24 h
[17] = stimulation of TLR7/8 by R848, 24 h
[18] = Condition A: 20 μM, 1 h before stimulation of TLR7/8 (R848 5 μg/ml)
[19] = Condition B: 20 μM, 1 h before stimulation of TLR4 (LPS 100 ng/ml)
[20] = Condition C: 20 μM, 1 h before stimulation of TLR2 (LTA 1 μg/ml)

COC(=O)c1c(NC(=O)C(F)(F)F)c(C#N)nn1-c1cccc(OC)c1 [Compound of formula (IX), methyl 3-cyano-1-(3-methoxyphenyl)-4-(2,2,2-trifluoroacetamido)-1H-pyrazole-5-carboxylate]
secretion of interferons by PBMCs [1]: inhibit
activation of the IRF transcription factor in THP1-Dual cells [2]: inhibit
IC50 [3, 14]: 0.4 µM
secretion of interferons on PBMCs [3]: capable of blocking

COc1cccc(NN=C(C#N)C#N)c1 [Compound of formula (V), 2-[(3-methoxyphenyl)hydrazinylidene]propanedinitrile]
enzymatic activity of pyruvate kinase (PK) [4]: no impact
secretion of interferons by PBMCs [5]: inhibit
secretion of interferons by PBMCs [1]: inhibit
activation of the IRF transcription factor in THP1-Dual cells [2]: inhibit
concentration from which transcription of the genes coding for TNFα and IL-1β is reduced [6]: ≥ 5 µM
concentration from which transcription of the genes coding for TNFα, IL-6, MCP1 and IL-1β is reduced [6]: ≥ 5 µM
production of TNFα on plasmacytoid dendritic cells ([7]; Condition A: 20 μM, 1 h before stimulation of TLR7 (R848 5 μg/ml)): inhibit
production of TNFα on plasmacytoid dendritic cells [7, 15]: inhibit
production of TNFα on plasmacytoid dendritic cells ([7]; Condition C: 20 μM, 1 h before stimulation of TLR9 (CpG-A)): inhibit
activation of the NF-κB transcription factor in THP1-Dual cells [8, 16]: inhibit
activation of the NF-κB transcription factor in THP1-Dual cells [8, 17]: inhibit
IC50 [9]: 3.8 µM
secretion of inflammatory cytokines on PBMCs [9]: capable of blocking
IC50 [3]: 3 µM
secretion of interferons on PBMCs [3]: capable of blocking
secretion of TNFα, IL-1β, IL-6, IL-18, IL-23, IFNγ and MCP1 on PBMCs [10]: capable of blocking
secretion of TNFα, IL-1β, IL-6, IL-10, IL-12 p70, IL-18, IL-23, IL-33, IFNα2, IFNγ and MCP1 on PBMCs [10]: capable of blocking
production of TNFα on monocytes [11, 18]: inhibit
production of TNFα on monocytes [11, 19]: inhibit
production of TNFα on monocytes [11, 20]: inhibit
activation of B lymphocytes (CD69 membrane activation marker) [12]: capable of blocking
production of TNFα by monocytes treated with control siRNAs (siCTL) [13]: inhibit
production of TNFα by monocytes treated with siRNAs targeting PDK1 (siPDK1) [13]: fail to inhibit

COc1ccc(NN=C(C#N)C#N)cc1 [Compound of formula (VI), 2-[(4-methoxyphenyl)hydrazinylidene]propanedinitrile]
enzymatic activity of pyruvate kinase (PK) [4]: no impact
secretion of interferons by PBMCs [5]: inhibit
secretion of interferons by PBMCs [1]: inhibit
activation of the IRF transcription factor in THP1-Dual cells [2]: inhibit
concentration from which transcription of the genes coding for TNFα and IL-1β is reduced [6]: ≥ 1 µM
concentration from which transcription of the genes coding for TNFα, IL-6, MCP1 and IL-1β is reduced [6]: ≥ 2 µM
production of TNFα on plasmacytoid dendritic cells [7]: inhibit
production of TNFα on plasmacytoid dendritic cells [7, 15]: inhibit
activation of the NF-κB transcription factor in THP1-Dual cells [8, 16]: inhibit
activation of the NF-κB transcription factor in THP1-Dual cells [8, 17]: inhibit
IC50 [9]: 5 µM
secretion of inflammatory cytokines on PBMCs [9]: capable of blocking
IC50 [3, 14]: 3 µM
secretion of interferons on PBMCs [3]: capable of blocking
secretion of TNFα, IL-1β, IL-6, IL-18, IL-23, IFNγ and MCP1 on PBMCs [10]: capable of blocking
secretion of TNFα, IL-1β, IL-6, IL-10, IL-12 p70, IL-18, IL-23, IL-33, IFNα2, IFNγ and MCP1 on PBMCs [10]: capable of blocking
production of TNFα on monocytes [11, 18]: inhibit
production of TNFα on monocytes [11, 19]: inhibit
production of TNFα on monocytes [11, 20]: inhibit
activation of B lymphocytes (CD69 membrane activation marker) [12]: capable of blocking
production of TNFα by monocytes treated with control siRNAs (siCTL) [13]: inhibit
production of TNFα by monocytes treated with siRNAs targeting PDK1 (siPDK1) [13]: fail to inhibit

COc1cccc(-n2nc3c(N)cc(-c4ccccc4)nc3c2C(=O)NCc2ccccc2)c1 [Compound of formula (VII), 7-amino-N-benzyl-2-(3-methoxyphenyl)-5-phenyl-2H-pyrazolo[4,3-b]pyridine-3-carboxamide]
IC50 [3, 14]: 23 µM
secretion of interferons on PBMCs [3]: capable of blocking
activation of B lymphocytes (CD69 membrane activation marker) [12]: capable of blocking

COc1cccc(-n2nc3c(N)cc(-c4ccccc4)nc3c2C(=O)NN)c1 [Compound of formula (VIII), 7-amino-2-(3-methoxyphenyl)-5-phenyl-2H-pyrazolo[4,3-b]pyridine-3-carbohydrazide]
secretion of interferons by PBMCs [5]: inhibit
secretion of interferons by PBMCs [1]: inhibit
activation of the IRF transcription factor in THP1-Dual cells [2]: inhibit
IC50 [3, 14]: 23 µM
secretion of interferons on PBMCs [3]: capable of blocking
activation of B lymphocytes (CD69 membrane activation marker) [12]: capable of blocking
